For 89 compounds, melting point results are on record in a melting point compilation (Tetko et al.; mined from patent text by program, amines drawn as free bases though some values may be those of a salt).

The structures appear in SMILES notation.

Broadly, the melting point is the temperature of the solid-liquid transition.

With `CCOC(=N)c1ccc(Cl)c(Cl)c1`, the melting point lay within 62 to 64 °C. The figure for `O=C(O)Cc1cccc2c(C3CCCCC3)nccc12` is 178 to 179 °C. The figure for `COc1ccccc1-c1ccn2ncc(Br)c2n1` is 125 to 128 °C; for `CC(=O)NC[C@H]1CN(c2cc(F)c(N3CCN(C(=O)CO)CC3)c(F)c2)C(=O)O1` it is 160 to 162 °C. The compound `Cc1cc(C)n(C(=O)CCl)n1` yielded a melting point of 62 °C. For the compound `CC(C)c1coc(=O)n1-c1cc(F)c(C#N)cc1F`, the melting point worked out at 83 °C. Compound `COc1cc(CO)c(OC)c(CCl)c1` registered a melting point of 48 to 50 °C.

With `COc1cc(-n2nc3ccc(Cl)cn3c2=O)c(F)cc1N`, the melting point was in the range of 138 to 140 °C. As to `CCOn1c(OC)n[nH]c1=O`, the melting point came out at 57 °C.

`COCCC1(C(=O)N[C@@H](Cc2ccc(NC(=O)c3c(Cl)cccc3Cl)cc2)C(=O)O)CCCC1` registered a melting point of 136 to 140 °C. In the case of `Cc1ncc2c(C#N)c(-c3ccc(S(=O)(=O)N[C@@H](C)C4CC4)cn3)n(C3CCC3)c2n1` it was 155 to 157 °C; in that of `CCC(=O)Nc1ccc(C=CC(=O)O)cc1`, 243 °C; in that of `CN(C)C(=O)Nc1ccc(Oc2ccc(C(F)(F)F)cc2Cl)cc1`, 140 °C. In the case of `CCOC(=O)c1ccc2cc(Oc3cccc([N+](=O)[O-])c3)ccn2c1=O` it was 161 to 163 °C. As for `Cc1cc(NC(=O)C(C)(O)COc2ccc(CCCCl)cc2)ccc1[N+](=O)[O-]` (centres undefined), the melting point lay within 110 to 112 °C. On to `COc1ccc(O[C@@H]2COc3ccc(-c4ccc5cc(F)ccc5n4)cc3[C@@H]2O)cc1` (relative stereo), for which the melting point lay in the range of 151 to 154 °C. The compound `CCCCN(C(C)=O)c1cccc(-c2ccnc3c(C#N)cnn23)c1` displayed a melting point of 146 to 148 °C. `CN(C)C(=O)c1cccc2c1nc(-c1c(F)cccc1F)n2Cc1c(F)cccc1F` displayed a melting point of 213 to 214 °C. In the case of `COc1ccc(C2CNC(=O)NC2)cc1OC(F)F` it was 215 to 216 °C. In the case of `CNC(=O)[C@@H](NC(=O)[C@@H](CC(=O)OCc1ccccc1)n1ccc(-c2ccncc2)c1)C(C)(C)C` it was 130 to 133 °C.

As for `CC(NC(Nc1cc(C(F)(F)F)cc(C(F)(F)F)c1)=C(C#N)S(=O)(=O)c1ccc(Cl)cc1)C(C)(C)C` (centres undefined), the melting point fell in the range of 156 to 158 °C. In the case of `CC(=O)n1ccc(-c2c(-c3ccncc3)c(-c3ccc(F)cc3)nn2CCO)cc1=O` it was 220 to 221 °C; in that of `Cc1cc(C)nc(N=S(C)C)n1`, 117 to 120 °C; in that of `O=C(O)CCc1oc(-n2cccn2)nc1-c1ccc(Cl)cc1`, 171 to 172 °C. `COC(=O)NC1=NCC(c2ccc(I)cc2)CN1` (centres undefined) had a melting point of 209 to 210 °C. In the case of `CCCCCCCCCCCCCCCCO[C@@H]1CCCO[C@H]1COP(=O)([O-])OCC[N+](C)(C)C` (relative stereo) it was 85 to 92 °C; in that of `O=C(O)c1cn(C2CC2)c2c(F)c(N3CC(C(=O)O)C3)c(F)cc2c1=O`, 251 to 255 °C.

`COc1ccc(CSc2cccnc2C(=O)O)cc1`: the melting point fell in the range of 170 to 172 °C. In turn, `C=CCOc1ccc(Oc2ccc(C(=O)OC)cc2)cc1` gave a melting point of 75 °C. The compound `OCCNC(=S)NC(Cc1cccs1)c1ccccc1` (centres undefined) displayed a melting point of 109 to 112 °C. In turn, `CNC(=O)C1=CC(C)(CF)Oc2ccc([N+](=O)[O-])cc21` (centres undefined) showed a melting point of 171 to 173 °C. The figure for `CCOC(=O)c1c(C(C)C)nc(-c2ccccc2)c(-c2ccccc2)c1-c1ccc(F)cc1` is 135 to 136 °C; for `O=C(O)c1cccc(OCc2csc(-c3ccccc3)n2)c1` it is 155 to 157 °C. In the case of `CC(=O)NCCCC(=O)c1ccc(Cl)cc1CCC(=O)NCC(=O)O` it was 88 to 89 °C; in that of `CCOC(=O)c1cn(C)c2cc(F)ccc2c1=O`, 164 to 166 °C; in that of `Cc1[nH]c(=O)c(C#N)cc1C(=O)n1ccnc1`, 237 to 238 °C. In the case of `CC1=C(CN2CC(C(=O)O)C2)CCc2cc(OCc3ccc(C(F)(F)F)cc3C(F)(F)F)ccc21` it was 155 to 165 °C; in that of `CS(=O)(=O)c1ccc(/C(=C(\CC(=O)O)C(=O)O)c2ccc(Cl)cc2)cc1`, 199 to 200 °C; in that of `COc1cc(C)c2c(c1O)CC(C)(c1ccccc1)C2=O` (centres undefined), 136 to 139 °C. As for `CC(C)(C)C(=O)Nc1ccncc1-c1n[nH]c2ccccc12`, the melting point was 232 to 233 °C. In the case of `CCc1[nH]n(C2CCCC2)c2nc(Cc3ccccc3OC)nc(=O)c1-2` it was 145 to 146 °C; in that of `O=C1CC(c2cccc(-n3ccnc3)c2)=Nc2ccc(C#Cc3ccccc3F)cc2N1`, 201 to 203 °C.

Consider `CCC1CCCCN1C(=O)c1cc2ccccc2c(-c2ccccc2)n1` (centres undefined), for which the melting point worked out at 86 °C. For the compound `O=C(O)CC(C(=O)O)C(=O)O`, the melting point was in the range of 157 to 159 °C. For the compound `Cc1nc(-c2ccc(OCCCCCOc3ccc(C(=N)NO)cc3)cc2)c(C(C)C)s1`, the melting point is 97 °C. In turn, `Cc1cc(-c2ccccc2)n2nc(C(F)(F)F)c(C#N)c2n1` gave a melting point of 143 to 148 °C. The figure for `CCOC(=O)c1cnc2c(C)csc2c1Nc1ccccc1C` is 132 to 134 °C; for `CC(=O)Nc1ccc(C(=O)N(CCN2CCC(C(=O)c3ccc(F)cc3)CC2)c2ccc(O)cc2)cc1` it is 133 to 137 °C. The compound `COc1ccc(C(=O)c2ccc(Br)cc2)c(C)c1F` yielded a melting point of 93 to 95 °C. Consider `NC(=O)c1[nH]c2ccc(Cl)cc2c1S(=O)(=O)c1ccc(Cl)cc1`, for which the melting point was in the range of 275 to 277 °C. The figure for `Cn1nc(-c2c(F)cccc2Cl)nc1-c1cc(-c2cccc(C(F)(F)F)c2)sc1Cl` is 53 to 54 °C. The figure for `Oc1cc(F)ccc1Oc1ccc(-c2ccco2)cc1O` is 102 to 104 °C; for `CS(=O)(=O)c1ccc(-c2cnc(-c3ccc(F)cc3)s2)s1` it is 183 to 184 °C.

Compound `N#CC1CC(c2ccccc2Cl)=NC1c1ccc(-c2ccc(OC(F)(F)F)cc2)cc1` (centres undefined) returned a melting point of 132 °C. As for `NC(=O)N1C(=O)C(=C(OC(=O)c2ccccn2)c2cccs2)c2cc(F)c(Cl)cc21`, the melting point was 184 to 185 °C. In the case of `O=C(O)Cn1c(=O)c(=O)[nH]c2cc(Cl)c(Cl)cc21` it was 317 to 319 °C; in that of `OC(=S)CC1c2ccccc2Oc2ccccc21`, 131 to 132 °C. In the case of `Nc1ccc(S(=O)(=O)c2cc(-c3ccc(Cl)cc3)nc(N3CCCC3)c2)cc1` it was 236 to 237 °C; in that of `CC(C)Cc1ccc(C(C)C(=N)NO)cc1` (centres undefined), 75 to 78 °C; in that of `CN1C(=O)[C@@H](NC(=O)OC(C)(C)C)CSc2ccccc21`, 116 to 120 °C. `COc1cc(C)c(C)cc1NC(=O)N1CCN(c2cc(-c3ccccc3)ccc2OC)CC1` gave a melting point of 139 to 140 °C. In turn, `Cc1nc2c(cc1Cl)C(=O)N(C)CC(CCCl)O2` (centres undefined) gave a melting point of 65 to 69 °C. As to `CCOc1cc(C(CC(C)=O)N2C(=O)c3cccc(NC(C)=O)c3C2=O)ccc1OC` (centres undefined), the melting point lay within 128 to 129 °C. `COc1cc2c(O)nc(-c3ccc(Cl)cc3)nc2c(OC)c1OC` yielded a melting point of 289 °C.

On to `O=C(O)/C(=C/C1CCCCC1)c1ccc(F)c(F)c1`, for which the melting point lay within 119 to 121 °C. The figure for `O=C(CCCCl)Nc1cccc2cccnc12` is 62 to 63 °C.

`NS(=O)(=O)c1ccc(-c2cnn(-c3ccc(F)cc3)c(=O)c2-c2ccc(F)cc2)cc1` had a melting point of 213 to 216 °C. Take `CC(=O)OC(C(=O)N(C)c1ccc(N(C)C(=O)C(OC(C)=O)c2ccccc2)cc1)c1ccccc1` (centres undefined): the melting point lay within 180 to 183 °C. The figure for `O=c1ccoc(CO)c1O` is 154 to 156 °C; for `CC1OOC2(/C=C\c3ccc(C(F)(F)F)cc3C(F)(F)F)CC1CC(=O)C2C` (centres undefined) it is 124 °C. The figure for `O=C(O)Cc1c(C(=O)c2ccc(Cl)cc2)[nH]c2cc(Cl)c(F)cc12` is 215 to 220 °C; for `O=[N+]([O-])c1cnc(Cl)nc1` it is 78 to 80 °C. For the compound `CC(C)(C)c1ccc(OCC(O)CN2CCC(N3CCC4(CC3)CSC3=C(O4)c4ccccc4C(=O)C3=O)CC2)cc1` (centres undefined), the melting point lay within 190 to 193 °C. In the case of `OC1CCc2ccc(Oc3c(F)cc(C(F)(F)F)cc3Cl)cc21` (racemic) it was 101 to 102 °C; in that of `CC(=O)OCc1c(Br)cccc1N1Cc2cc(C(C)(C)C)ccc2C1=O`, 176 to 178 °C. The compound `COc1ccc(C(=O)C=Cc2ccc(N(C)C)cc2)c(OC)c1OC` showed a melting point of 88 to 89 °C.

In turn, `C#CCc1c(C)nc2c(OCc3ccccc3CO)cccn12` returned a melting point of 137 to 138 °C. Turning to `Cc1cc(C)cc(-c2nc(N)sc2-c2ccnc(NC(=O)c3ccccc3)c2)c1`, the melting point fell in the range of 120 to 123 °C. In the case of `O=C(OCc1ccccc1)[C@@H]1CCC(=O)N1C(=O)c1ccccc1` it was 101 °C; in that of `N#Cc1c(CNC(=O)c2ccc(OC(F)(F)F)cc2)nn(-c2ccc(Cl)cc2Cl)c1-c1ccc(Cl)cc1`, 180 °C; in that of `COC(=O)c1ccccc1NC(=O)OC1CC2C(=O)NC3(C(=O)NS(=O)(=O)C4CC4)CC3C=CCOCCCC(NC(=O)OC(C)(C)C)C(=O)N2C1` (centres undefined), 147 to 149 °C. In the case of `CCCCc1c(C(=O)OCC)cc(O)c2ccc(OC)cc12` it was 112 to 115 °C. `CCN1CCN(c2cc3c(cc2F)c(=O)c(C(=O)O)c2n3C(C)S2)CC1` (centres undefined) yielded a melting point of 211 to 214 °C. For `CN(C)S(=O)(=O)NCC1COc2ccccc2O1` (centres undefined), the melting point lay in the range of 76 to 78 °C.

`CCOC(=O)CC(=O)Nc1ccc(N)c([N+](=O)[O-])c1` returned a melting point of 133 to 136 °C. `CC(C(N)=O)c1ccc2c(c1)Oc1ccccc1CC2=O` (centres undefined) displayed a melting point of 159 to 160 °C. In the case of `O=S(=O)(NC1C2CCC(C2)C1CO)c1ccccc1` (centres undefined) it was 118 to 120 °C; in that of `CS(=O)(=O)c1ccc(-c2cnn(Cc3ccccc3)c(=O)c2Cc2ccc(F)cc2)cc1`, 186 to 189 °C; in that of `COc1cc2c(c3c1OC(C)(C)C3)C(c1ccccc1)=NC(C)(CN1C(=O)c3ccccc3C1=O)C2` (centres undefined), 121 to 125 °C.
